Source: publication PMC4503439, “Dose-Independent ADME Properties and Tentative Identification of Metabolites of α-Mangostin from Garcinia mangostana in Mice by Automated Microsampling and UPLC-MS/MS Methods” (PLoS ONE, 2015)

experiment: Tentative identification of metabolites from α-MG by UPLC-MS/MS; type: in vivo; settings: mice after intravenous and oral α-MG; S9 fractions after 30-min incubation
Description: Probable metabolites of α-MG were identified using the simultaneous full scan MS, MRM and MS/MS modes in a Waters UPLC-XEVO TQ system (Waters Corporation, Milford, USA) to confirm the structures of any metabolites. […] Structural elucidation of the metabolites was based on the fragmentation patterns of parent ion from the MS/MS mode at a collision energy of 10 to 20 eV generating daughter ions. The mass transitions for α-MG was m/z 411.21 → 354.85 (collision energy of 20 eV and collision cell exit potential of 25 eV, respectively). The unknown masses were further analyzed in MS/MS (daughter scan) mode with the electrospray ionization interface used to generate positive and negative ions at a capillary voltage of 3.0 kV, source temperature of 350°C and desolvation gas temperature of 650°C. The MRM methods for identification of possible metabolites generated by phase I and/or II reactions were included.
These compounds were separated on a reversed-phase C18 column (XSELECT CSH, 2.1 mm × 100 mm i.d., 1.7-μm particle size; Waters, Ireland) with a flow rate of 0.35 mL/min. The mobile phase composition was started at 95: 5 (v/v) of distilled water containing 0.1% formic acid (A) and acetonitrile (B) and gradually changed to 35: 65 (v/v) for 30 min, and then switched back to 95: 5 (v/v) for 40 min.

Source (samples in which detected) | SMILES
urine, feces, liver, small intestine | COc1c(O)cc2oc3cc4c(c(O)c3c(=O)c2c1CC=C(C)C)C=CC(C)(C)O4 [M7]
urine, feces, liver, small intestine | COc1c(O)cc2oc3cc(O)c4c(c3c(=O)c2c1CC=C(C)C)OC(C)(C)C=C4 [M8]
liver, small intestine, feces | COc1c(O)cc2oc3c(O)c(O)c(CC=C(C)C)c(O)c3c(=O)c2c1CC=C(C)C [M10]
liver, small intestine, feces | COc1c(O)c(O)c2oc3cc(O)c(CC=C(C)C)c(O)c3c(=O)c2c1CC=C(C)C [M11]
liver, small intestine, feces | COc1c(O)cc2oc3cc(O)c(CC=C(C)C)c(O)c3c(=O)c2c1CC1OC1(C)C (stereo not drawn) [M12]
liver, small intestine, feces | COc1c(O)cc2oc3cc(O)c(CC4OC4(C)C)c(O)c3c(=O)c2c1CC=C(C)C (stereo not drawn) [M13]
